Measured values as given in patent publication US9623063B2, “Extracts from Ajuga reptans cell lines, their preparation and use” (I.R.B. ISTITUTO DI RICERCHE BIOTECNOLOGICHE S.r.l., priority 2005, dated 2017).
Like-named read-outs stand apart in the source and are kept apart here.

Assays:
platelets = assay: ADP induced platelet aggregation-disaggregation in platelet rich plasma; type: cell-based, rabbit; conditions: for Control disaggregation: 10 minutes after ADP; for Control disaggregation / Control aggregation / Latency period: Mean ± SD (n = 6); for Control aggregation: ADP 10 μM
Experimental: Platelet enriched rabbit plasma has been used to assess the platelet anti-aggregating and disaggregating properties of Ajuga reptans Extracts compared with teupolioside and isoteupolioside. Platelet rich plasma has been obtained from rabbit venous blood by mixing it with a 3.8% sodium citrate solution (9:1 v/v). The solution has then been centrifuged at 460×g for 20 minutes. The supernatant has been collected and immediately used for the aggregation assays. Platelet aggregation has been recorded using a Chronolog “Ionised calcium platelet aggregometer” (Chrono-log Co., USA). All measurements have been performed at 37° C. with continuous stirring. One milliliter of the platelet suspension (in the presence or absence of the test substances) has been added to the cuvettes and incubated for five minutes to equilibrate the cells to 37° C. Then 10 μl of a solution of ADP (final concentration—10 μM) has been added and the luminous transmittance continuously recorded. The results are expressed as the DT/DTK ratio, where DTK and DT are the luminous transmittance values, in the absence and presence of extract respectively.
Platelet disaggregation (the disappearance of pre-formed aggregates) has been determined using the same luminous transmittance curve 10 minutes following the addition of ADP. The results are expressed as the DR/DRk ratio, where DRk and DR, are the luminous transmittance in the absence and presence of extract. The test substances, diluted in physiological solution (isotonic saline) (pH 7.4) are pre-incubated with the platelet rich plasma (1:10 v/v) for 5-40 minutes. The aggregation measurements have then been performed. Physiological solution carrier has been added to the control samples (1:10 v/v).

[1] = Metal chelation, spectrophotometric (Cu2+); type: physicochemical
Text: (§1) The chelating activities of Ajuga reptans extracts in relation to Fe^2+, Fe^3+, Cu^2+ and Ni^2+ metal ions has been determined by means of spectrophotometric measurements using a Shimadzu 1770 UV spectrophotometer. The activities of chelating agents depends on the association constant (equilibrium) of their reactions with the metals according to the following reaction:
(§2) [formula] wherein Keq is the equilibrium constant equal to the ratio of concentrations at equilibrium of a complex and a product of equilibrium concentrations of metal ions and a chelator:
(§3) The method used for determining chelating activities is well documented in the literature (Korkina L G, Afarras'er I B. Antioxidant and chelating properties of flavonoids. Adv. Pharmacol., 1997, 38:151-63). The results are expressed as Keq (M^−1) calculated for a pure phenylpropanoid. This way the chelating activity against ferrous (Fe II), ferric (Fe III), copper (Cu II) and nickel ions has been calculated.

[2] = Hydroxyl radical scavenger activity (Fenton reaction, luminol chemiluminescence); type: biochemical
Text: Ajuga reptans Extracts 1 and 2, prepared as described in examples 1 and 2, and isoteupolioside have been used to assess in vitro antioxidant action with specific oxygen radical generating systems such as the superoxide anion (O2^−), the hydroxyl radical (HO^−), the peroxynitrite radical (ONOO^−) and the inhibition of lipid peroxidation. The superoxide anion has been measured by a chemiluminescent assay based on the hypoxanthine (HPX)/xanthine oxidase (XOD) reaction using the Lumimax Superoxide Anion Detection Kit (Stratagene, La Jolla, Calif., USA) and following the manufacturer's instructions. Hydroxyl radical scavenger activity has been measured by means of the Fenton reaction for the production of hydroxyl radicals and chemiluminescent dosage (using a Victor^3 chemiluminometer, Wallac, Finland) with luminol. Peroxynitrite ions have been determined by means of dosage with a spontaneous generator of peroxynitrites (3-morpholinosidnonimine hydrochloride; SIN-1) and a stable reagent for the nitroxyl ions (2-(4-carboxyphenyl)-4,4,5,5-tetramethylimidazoline-1-oxyl-3-oxide potassium salt PTIO spin trap) then dosed by means of electron spin resonance (ESR) using a Nippon Denshi JES-FR30. Lipid peroxidation has been generated using Fe^2+ induced-oxygen reactive species, and detected using thiobarbituric acid in accordance with Buege, J A & Aust, S D: Microsomal lipid peroxidation (Methods Enzymol.
The Extract 1 and the Extract 2 set forth in Table 4 are derived from Ajuga reptans cell cultures comprising the phenylpropanoids at 90% and 54%, respectively. The results are expressed as the concentration inhibiting 50% of activity (IC50), means of 6 independent assays.

[3] = Metal chelation, spectrophotometric (Fe2+); type: physicochemical
Text: as §1, §2, §3

[4] = Metal chelation, spectrophotometric (Ni2+); type: physicochemical
Text: as §1, §2, §3

[5] = system: Pseudomonas aeruginosa ATCC 9027; assay: Multiple dilution assay, growth in culture broth; type: cell-based; conditions: for T0 (CFU/ml) / T7d (CFU/ml) / T14d (CFU/ml) / T21d (CFU/ml) / T28d (CFU/ml): 30° C.; for T7d (CFU/ml): 7 days; for T14d (CFU/ml): 14 days; for T21d (CFU/ml): 21 days; for T28d (CFU/ml): 28 days
Experimental: (§4) To the purpose of detecting any antimicrobial activity of the Ajuga reptans extract and the individual phenylpropanoid isoteupoloside (FPD) and teupolioside (FPA), an assay has been prepared, generally known as multiple dilution assay, with the following microbial strains: Pseudomonas aeruginosa ATCC 9027; Candida albicans ATCC 2091. The phenylpropanoids FPD, FPA and the Extract 2 of Ajuga reptans were assayed at the concentrations of 0.5 mg/ml, 2 mg/ml and 5 mg/ml. The microbial strains for the test were inoculated in culture broths (in Triptone soy broth medium) containing the substances to be assayed at the concentrations described above. In parallel with these tests, culture broths containing the microbial strain alone have been prepared (controls). The culture-broths have been incubated at 30° C. for a period of 28 days. […] A certain number of serial dilutions have been prepared for each sample in order to determine the microbial load of each culture-broth. Each dilution has been assayed in triplicate on solid medium. Then number of CFUs reported in the table is the mean of the counts performed on the triplicate assays.

[6] = system: Candida albicans ATCC 2091; assay: Multiple dilution assay, growth in culture broth; type: cell-based; conditions: for T0 (CFU/ml) / T7d (CFU/ml) / T14d (CFU/ml) / T21d (CFU/ml) / T28d (CFU/ml): 30° C.; for T7d (CFU/ml): 7 days; for T14d (CFU/ml): 14 days; for T21d (CFU/ml): 21 days; for T28d (CFU/ml): 28 days
Experimental: as §4

[7] = calculated for a pure phenylpropanoid

SMILES: CC1OC(OC2C(O)C(COC(=O)C=Cc3ccc(O)c(O)c3)OC(OCCc3ccc(O)c(O)c3)C2O)C(OC2OC(CO)C(O)C(O)C2O)C(O)C1O (stereo not drawn) [Isoteupolioside, isoteupolioside]
- Platelet disaggregation test, activity in words (platelets): activity similar to teupolioside
- Cu^2+ (Keq, M^−1) [1]: 70000 ± 20000 M⁻¹
- Hydroxyl radial (IC50) [2]: 1.04 µg/mL
- Fe^2+ (Keq, M^−1) [3]: 340000 ± 10000 M⁻¹
- Ni^2+ (Keq, M^−1) [4]: 2631 ± 373 M⁻¹
- T0 (CFU/ml) ([5]; 0.5 mg/ml): 9.6 × 10^5 CFU/ml
- T7d (CFU/ml) ([5]; 0.5 mg/ml): 1.2 × 10^6 CFU/ml
- T14d (CFU/ml) ([5]; 0.5 mg/ml): 2.1 × 10^7 CFU/ml
- T21d (CFU/ml) ([5]; 0.5 mg/ml): 2.4 × 10^4 CFU/ml
- T28d (CFU/ml) ([5]; 0.5 mg/ml): 9.8 × 10^3 CFU/ml
- T0 (CFU/ml) ([5]; 2 mg/ml): 5.9 × 10^5 CFU/ml
- T7d (CFU/ml) ([5]; 2 mg/ml): 1.1 × 10^6 CFU/ml
- T14d (CFU/ml) ([5]; 2 mg/ml): 1.9 × 10^6 CFU/ml
- T21d (CFU/ml) ([5]; 2 mg/ml): 9.2 × 10^3 CFU/ml
- T28d (CFU/ml) ([5]; 2 mg/ml): 9.8 × 10^3 CFU/ml
- Inhibiting action on the growth of Pseudomonas aeruginosa ATCC 9027, in words ([5]; 5 mg/ml): significant inhibiting action
- T0 (CFU/ml) ([5]; 5 mg/ml): 3.6 × 10^5 CFU/ml
- T7d (CFU/ml) ([5]; 5 mg/ml): 9.8 × 10^5 CFU/ml
- T14d (CFU/ml) ([5]; 5 mg/ml): 1.1 × 10^5 CFU/ml
- T21d (CFU/ml) ([5]; 5 mg/ml): 2.5 × 10^3 CFU/ml
- T28d (CFU/ml) ([5]; 5 mg/ml): 9 × 10^1 CFU/ml
- T0 (CFU/ml) ([6]; 0.5 mg/ml): 9.7 × 10^5 CFU/ml
- T7d (CFU/ml) ([6]; 0.5 mg/ml): 1.7 × 10^6 CFU/ml
- T14d (CFU/ml) ([6]; 0.5 mg/ml): 5.8 × 10^5 CFU/ml
- T21d (CFU/ml) ([6]; 0.5 mg/ml): 7.3 × 10^7 CFU/ml
- T28d (CFU/ml) ([6]; 0.5 mg/ml): 6.5 × 10^7 CFU/ml
- T0 (CFU/ml) ([6]; 2 mg/ml): 9.1 × 10^5 CFU/ml
- T7d (CFU/ml) ([6]; 2 mg/ml): 1.1 × 10^6 CFU/ml
- T14d (CFU/ml) ([6]; 2 mg/ml): 2.3 × 10^6 CFU/ml
- T21d (CFU/ml) ([6]; 2 mg/ml): 1.2 × 10^5 CFU/ml
- T28d (CFU/ml) ([6]; 2 mg/ml): 3.8 × 10^3 CFU/ml
- Inhibiting action on the growth of Candida albicans ATCC 2091, in words ([6]; 5 mg/ml): significant inhibiting action
- T0 (CFU/ml) ([6]; 5 mg/ml): 8.1 × 10^5 CFU/ml
- T7d (CFU/ml) ([6]; 5 mg/ml): 3.1 × 10^5 CFU/ml
- T14d (CFU/ml) ([6]; 5 mg/ml): 8.5 × 10^3 CFU/ml
- T21d (CFU/ml) ([6]; 5 mg/ml): 5 × 10^1 CFU/ml

SMILES: C[C@@H]1O[C@@H](O[C@@H]2[C@@H](O)[C@H](OCCc3ccc(O)c(O)c3)O[C@H](CO)[C@H]2OC(=O)/C=C/c2ccc(O)c(O)c2)[C@H](O[C@@H]2O[C@H](CO)[C@H](O)[C@H](O)[C@H]2O)[C@H](O)[C@H]1O [Teupolioside, teupolioside]
- Effect on platelet aggregation, in words (platelets): modest inhibiting effect on platelet aggregation, only at 1 mg/ml concentration
- Control disaggregation (platelets; 0.001 mg/ml): 105 ± 5
- Control aggregation (platelets; 0.001 mg/ml): 121 ± 6
- Latency period (platelets; 0.001 mg/ml): 101 ± 3
- Control disaggregation (platelets; 0.01 mg/ml): 113 ± 10
- Control aggregation (platelets; 0.01 mg/ml): 110 ± 10
- Latency period (platelets; 0.01 mg/ml): 95 ± 5
- Control disaggregation (platelets; 0.1 mg/ml): 124 ± 15
- Control aggregation (platelets; 0.1 mg/ml): 114 ± 10
- Latency period (platelets; 0.1 mg/ml): 94 ± 4
- Control disaggregation (platelets; 1.0 mg/ml): 100 ± 10
- Control aggregation (platelets; 1.0 mg/ml): 68 ± 9
- Latency period (platelets; 1.0 mg/ml): 66 ± 10
- Cu^2+ (Keq, M^−1) [1, 7]: 80000 ± 30000 M⁻¹
- Hydroxyl radial (IC50) ([2]; means of 6 independent assays): 1.6 µg/mL
- Fe^2+ (Keq, M^−1) [3, 7]: 350000 ± 20000 M⁻¹
- Ni^2+ (Keq, M^−1) [4, 7]: 2658 ± 365 M⁻¹
- Anti-microbial activity on Pseudomonas aeruginosa ATCC 9027, comparison in words [5]: activity similar to isoteupolioside
- Inhibiting action on the growth of Pseudomonas aeruginosa ATCC 9027, in words ([5]; 5 mg/ml): significant inhibiting action
- Anti-microbial activity on Candida albicans ATCC 2091, comparison in words [6]: activity similar to isoteupolioside
- Inhibiting action on the growth of Candida albicans ATCC 2091, in words ([6]; 5 mg/ml): significant inhibiting action
